From article PMC11259170, “Small-molecule probe for IBD risk variant GPR65 I231L alters cytokine signaling networks through positive allosteric modulation” (Science Advances, 2024)
Where two headings read alike, the source gives them in different places.

Columns and labels:
hGPR65 = target: T1, hGPR65 (Homo sapiens, UniProt Q8IYL9); experiment: cAMP detection in HeLa expression cell line, hGPR65; type: cell-based; settings: for Emax: HeLa, read-out: hGPR Max Activity %; for Emax / hGPR Max Activity: relative to 100uM forskolin (100%) and DMSO (0%); for hGPR Max Activity: third pair
T1 construct: expressed in transfected cells; host or cells: HeLa (ATCC CCL-2), lentiviral transduction, pLX317
T1 sequence (Q8IYL9 whole entry): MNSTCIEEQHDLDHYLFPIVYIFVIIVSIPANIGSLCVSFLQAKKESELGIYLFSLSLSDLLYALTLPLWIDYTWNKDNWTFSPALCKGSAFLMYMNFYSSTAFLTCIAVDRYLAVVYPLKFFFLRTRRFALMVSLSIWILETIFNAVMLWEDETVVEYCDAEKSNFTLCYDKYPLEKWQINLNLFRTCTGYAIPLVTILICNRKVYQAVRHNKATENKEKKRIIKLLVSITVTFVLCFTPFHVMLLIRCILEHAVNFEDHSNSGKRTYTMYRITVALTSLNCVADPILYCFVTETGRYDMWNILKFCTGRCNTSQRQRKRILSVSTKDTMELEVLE
Procedure, shortened: (§1)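 TR-FRET cAMP read-out (Lance Ultra; ex 337 nm, em 620 and 665 nm) after 1 h detection in the dark, following a 30 min RT stimulation of 1500 cells per well in pH 7.2 stimulation buffer with compound supplied as 10 mM DMSO stock. Cells: lentivirally transduced HeLa lines carrying V5-tagged GPCR or GFP, kept under 3 μg/ml puromycin.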

mGPR65 = target: T2, mGPR65 (Mus musculus, UniProt Q61038); experiment: cAMP detection in HeLa expression cell line, mGPR65; type: cell-based; settings: for Emax: HeLa, read-out: mGPR Max Activity %; for Emax / mGPR Max Activity: relative to 100uM forskolin (100%) and DMSO (0%); for mGPR Max Activity: third pair
T2 construct: expressed in transfected cells; host or cells: HeLa (ATCC CCL-2), lentiviral transduction, pLX317
T2 sequence (Q61038 whole entry): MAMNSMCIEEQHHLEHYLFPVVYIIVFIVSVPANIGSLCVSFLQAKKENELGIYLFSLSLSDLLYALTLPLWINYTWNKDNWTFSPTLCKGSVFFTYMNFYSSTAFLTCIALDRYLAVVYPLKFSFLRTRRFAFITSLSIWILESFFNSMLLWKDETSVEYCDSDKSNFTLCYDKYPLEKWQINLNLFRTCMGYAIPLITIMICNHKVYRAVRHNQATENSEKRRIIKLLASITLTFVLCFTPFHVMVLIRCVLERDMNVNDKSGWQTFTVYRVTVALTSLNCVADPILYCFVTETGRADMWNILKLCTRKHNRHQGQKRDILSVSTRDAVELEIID
Procedure, shortened: as §1

[1] = system: GFP-expressing HeLa cells; experiment: cAMP detection in HeLa expression cell line, GFP control; type: cell-based, human; settings: for EC50 / Emax: Homo sapiens, HeLa; for EC50: SAR cAMP assay; for GFP Max Activity: third pair; for GFP Max Activity / Emax: relative to 100uM forskolin (100%) and DMSO (0%); for Emax: read-out: GFP Max Activity %
Procedure, shortened: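 HeLa cells stably expressing C-terminally V5-tagged receptor or GFP (lentiviral, puromycin 3 μg/ml) stimulated at 1500 cells per well for 30 min at RT with compound (10 mM DMSO stock) in stimulation buffer at pH 7.2. cAMP detected by Lance Ultra TR-FRET after lysis and 1 h detection, excitation 337 nm, emission 620/665 nm.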

[2] = Comment on solubility in SAR table; type: physicochemical
Excerpt: Supplement sciadv.adn2339_data_s1_to_s4.zip/sciadv.adn2339_data_s2.xlsx, sheet "SAR cAMP Assay"

human GPR4 (hGPR4) = target: T3, human GPR4 (hGPR4) (Homo sapiens, UniProt P46093); experiment: cAMP detection in HeLa expression cell line, hGPR4; type: cell-based; settings: for EC50: pH 7.2, 30 min
T3 construct: expressed in transfected cells; host or cells: HeLa (ATCC CCL-2), lentiviral transduction, pLX317
T3 sequence (P46093 whole entry): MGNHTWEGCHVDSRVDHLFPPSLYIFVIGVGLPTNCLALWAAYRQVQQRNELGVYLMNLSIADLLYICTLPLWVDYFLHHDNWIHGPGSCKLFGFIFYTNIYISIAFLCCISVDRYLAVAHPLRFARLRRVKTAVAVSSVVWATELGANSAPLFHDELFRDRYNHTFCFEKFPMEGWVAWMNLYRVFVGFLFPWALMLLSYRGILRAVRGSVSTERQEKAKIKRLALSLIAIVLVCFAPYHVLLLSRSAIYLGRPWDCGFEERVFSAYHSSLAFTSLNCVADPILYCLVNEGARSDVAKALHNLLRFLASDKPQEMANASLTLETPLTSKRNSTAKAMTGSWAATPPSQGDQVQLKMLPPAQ
Method: HeLa stable expression cell lines were produced by lentiviral transduction. Briefly, lentiviral plasmids for each GPCR with a C-terminal V5 Tag ([…]) were made in a pLX317 backbone using competent Escherichia coli (New England Biolabs, C3050H). Lenti-X 293 T (Takara, 632810) cells were transfected with the lentiviral plasmids to produce virus. Low-passage HeLa cells (American Type Culture Collection, CCL-2) were then transduced with lentivirus. After 48 hours, HeLa cells were cultured under selection with puromycin (3 μg/ml) and allowed to recover and expand before storing stocks in liquid nitrogen.
cAMP was measured in cells using the Lance Ultra cAMP Kit. HeLa cells were cultured under puromycin (3 μg/ml) selection. One day before the experiment, cells were seeded in T75 flasks and allowed to adhere overnight. On the day of the experiment, cells were washed twice with Dulbecco’s PBS and lifted using prewarmed 1× versene solution (Gibco, 15040066). Cells were counted in HBSS (Gibco, 14025092) and then resuspended in stimulation buffer prepared according to the manufacturer’s instructions and adjusted to pH 7.2 using 1 M sodium hydroxide. Cells were added to the plate at a density of 1500 cells per well in white opaque 384-well assay ready microplates containing 100 nl of 10 mM compound in DMSO. Cells were stimulated for 30 min at RT, then lysed and incubated with detection reagents for 1 hour in the dark at RT. Plates were read on BMG Labtech PHERAstar FSX (excitation, 337 nm; emission, 620 and 665 nm). Data analysis was performed using GraphPad Prism.

[3] = Solubility in phosphate buffer; type: physicochemical; settings: read-out: Solubility
Lipophilicity (logD) = type: physicochemical; settings: pH 7.4; pH7.4; read-out: LogD (pH7.4)
[4] = SAR cAMP assay, second EC50/Max pair of hGPR columns, read-out: hGPR EC50
[5] = SAR cAMP assay, third EC50/Max pair of hGPR columns, read-out: hGPR EC50
[6] = SAR cAMP assay, third EC50/Max pair of mGPR columns, read-out: mGPR EC50
[7] = third EC50/Max pair of GFP control columns

SMILES: Cc1ccc(NC(=O)c2cnn3c(O)cc(-c4cccc(-c5ccccc5)c4)nc23)cc1 [BRD8101]
- Emax (hGPR65; second pair): 7.53%
- EC50 (hGPR65; [4]): 9.64 µM
- EC50 (hGPR65; [5]): 13.6 µM
- hGPR Max Activity (hGPR65): 28.01%
- Emax (mGPR65; second pair): 73.1%
- EC50 (mGPR65; SAR cAMP assay, second EC50/Max pair of mGPR columns, read-out: mGPR EC50): 0.566 µM
- EC50 (mGPR65; [6]): 0.0897 µM
- mGPR Max Activity (mGPR65): 82.45%
- EC50 [1, 7]: 3200 nM
- GFP Max Activity [1]: 2.825%
- Comments (solubility) [2]: Poor solubility.

SMILES: Cc1ccc(NC(=O)c2cnn3c(O)cc(-c4ccc(-c5cccc(C(C)C)c5)cc4)nc23)cc1 [BRD4922]
- Emax (hGPR65; first pair): 47.3%
- Emax (hGPR65; second pair): 51.9%
- EC50 (hGPR65; SAR cAMP assay, first EC50/Max pair of hGPR columns, read-out: hGPR EC50): 3.82 µM
- EC50 (hGPR65; [4]): 1.42 µM
- EC50 (hGPR65; [5]): 0.688 µM
- hGPR Max Activity (hGPR65): 55.72%
- EC50 (mGPR65; [6]): 0.9 µM
- mGPR Max Activity (mGPR65): 35.02%
- EC50 ([1]; second EC50/Max pair of GFP control columns): 2440 nM
- EC50 [1, 7]: 6470 nM
- Emax ([1]; second pair): 0.205%
- GFP Max Activity [1]: 1.632%
- Comments (solubility) [2]: Poor solubility.

SMILES: Cc1ccc(NC(=O)c2cnn3c(O)cc(-c4ccc(F)c(Cl)c4)nc23)cc1 [BRD5067, O=C(NC1=CC=C(C)C=C1)C2=C3N(N=C2)C(O)=CC(C4=CC=C(F)C(Cl)=C4)=N3]
- Emax (hGPR65; 1st hGPR column pair, NA = no activity): 74.6%
- Emax (hGPR65; 2nd hGPR column pair, NA = no activity): 69.2%
- EC50 (hGPR65; hGPR EC50 (uM), NA = no activity): 0.232 µM
- EC50 (hGPR65; hGPR EC50 (uM), pH 7.2, 30 min): 0.534 µM
- EC50 (hGPR65; hGPR EC50, NA = no activity): 0.583 µM
- EC50 (hGPR65; hGPR EC50, pH 7.2, 30 min): 0.554 µM
- cAMP activity, hGPR65 (hGPR65; pH 7.2): at least 40%
- Emax (mGPR65; 2nd mGPR column pair, NA = no activity): 37.6%
- Emax (mGPR65; NA = no activity): 41.4%
- EC50 (mGPR65; mGPR EC50 (uM), 2nd mGPR column pair, NA = no activity): 0.537 µM
- EC50 (mGPR65; mGPR EC50 (uM), first pair of columns, pH 7.2, 30 min): 0.449 µM
- EC50 (mGPR65; mGPR EC50 (uM), second pair of columns, pH 7.2, 30 min): 0.23 µM
- EC50 (mGPR65; mGPR EC50 (uM), NA = no activity): 0.328 µM
- cAMP activity, mGPR65 (mGPR65; pH 7.2): at least 40%
- EC50 (human GPR4 (hGPR4); GPR4 EC50 (uM)): 0.494 µM
- EC50 (human GPR4 (hGPR4); GPR4 EC50, second pair of columns): 0.687 µM
- cAMP induction in the hGPR4 cell line (human GPR4 (hGPR4); pH 7.2): additionally induced cAMP
- Emax ([1]; 2nd GFP column pair, NA = no activity): 1.17%
- solubility [3]: < 1.56 µM
- logD (Lipophilicity (logD)): > 4.89
